Laboratory results taken from patent publication US20230293599A1, “BACTERIAL COMPOSITIONS WITH ANTI-INFLAMMATORY ACTIVITY” (Universiteit Gent, priority 2020, published 2023).
Where two headings read alike, the source gives them in different places. Residues, ends and D or L forms follow the SMILES beside them.

Columns and labels:
S. aureus = format: cell-based, Staphylococcus aureus
Description: (§1) Using Phenotype Microarray (PM) panels (Biolog), the influence of 190 carbon sources on the growth of the potential probiotic species R. mucilaginosa, R. dentocariosa, R. gilardii, G. haemolysans, and common respiratory pathogens P. aeruginosa, and S. aureus was determined. PM1 and PM2 panels (Biolog) were inoculated according to the manufacturer's instructions. Growth curves were generated for 35 hours by measuring the absorbance at 590 nm using an EnVision (Perkin Elmer) plate reader.

G. haemolysans = assay: Biolog Phenotype Microarray PM1-2 growth on carbon sources; format: cell-based, Gemella haemolysans; conditions: for growth of G. haemolysans on the carbon source (in words): AUC lower than 50 = not supporting growth
Description: as §1

R. gilardii = assay: as above; format: cell-based, Roseomonas gilardii
Description: as §1

P. aeruginosa = assay: as above; format: cell-based, Pseudomonas aeruginosa; conditions: for growth of P. aeruginosa on the carbon source (in words): AUC lower than 50 = not supporting growth
Description: as §1

R. dentocariosa = assay: as above; format: cell-based, Rothia dentocariosa; conditions: for growth of R. dentocariosa on the carbon source (in words): AUC lower than 50 = not supporting growth
Description: as §1

R. mucilaginosa = assay: as above; format: cell-based, Rothia mucilaginosa; conditions: for growth of R. mucilaginosa on the carbon source (in words): AUC lower than 50 = not supporting growth
Description: as §1

[1] = 35 hours, absorbance 590 nm, n = 1, cells without values AUC < 50

Compound	AUC of growth curve, S. aureus (S. aureus)	AUC of growth curve, G. haemolysans (G. haemolysans; [1])	AUC of growth curve, R. gilardii (R. gilardii; [1])	AUC of growth curve, P. aeruginosa (P. aeruginosa; [1])	AUC of growth curve, R. dentocariosa (R. dentocariosa; [1])	AUC of growth curve, R. mucilaginosa (R. mucilaginosa; [1])	further results
CC(O)C(C)O (stereo not drawn) [2,3-Butanediol]	147.2	145.4	–	–	–	–	–
O=CC[C@H](O)[C@H](O)CO [2-Deoxy-D-Ribose]	580.2	180.3	366.7	529.9	376.6	–	–
O=C(CO)[C@@H](O)[C@H](O)[C@@H](O)C(=O)O [5-Keto-D-Gluconic Acid]	432.1	–	–	–	–	–	AUC of growth curve, R. gilardii (R. gilardii): 423.9; AUC of growth curve, P. aeruginosa (P. aeruginosa): 1312.5; AUC of growth curve, G. haemolysans (G. haemolysans): 122.8; AUC of growth curve, R. dentocariosa (R. dentocariosa): 277.0
CC(=O)CC(=O)O [Acetoacetic Acid]	928.3	–	172.4	301.3	229.8	301.4	–
Nc1ncnc2c1ncn2[C@@H]1O[C@H](CO)[C@@H](O)[C@H]1O [Adenosine]	472.6	65.6	–	398.1	–	–	–
O=C[C@@H](O)[C@H](O)[C@H](O)CO [D-Arabinose]	705.0	88.1	356.3	763.4	305.6	–	–
O=C(CO)[C@@H](O)[C@H](O)[C@H](O)COP(=O)(O)O [D-Fructose-6-Phosphate]	437.8	134.2	–	783.8	87.1	127.5	–
O=C(CO)[C@@H](O)[C@H](O)[C@H](O)CO [D-Fructose]	992.9	–	–	–	–	–	AUC of growth curve, R. gilardii (R. gilardii): 315.8; AUC of growth curve, P. aeruginosa (P. aeruginosa): 413.3; AUC of growth curve, G. haemolysans (G. haemolysans): 88.8; AUC of growth curve, R. mucilaginosa (R. mucilaginosa): 1111.2; AUC of growth curve, R. dentocariosa (R. dentocariosa): 109.5
O=C[C@H](O)[C@@H](O)[C@@H](O)[C@H](O)CO [D-Galactose]	834.0	–	186.6	720.0	533.6	101.1	–
N[C@H]1C(O)O[C@H](CO)[C@@H](O)[C@@H]1O (stereo partly drawn) [D-Glucosamine]	884.6	618.4	196.5	840.0	200.6	–	–
O=C[C@@H](O)[C@@H](O)[C@H](O)[C@H](O)CO [D-Mannose]	729.5	218.6	–	495.0	106.1	1017.6	–
O=C(CO)[C@H](O)[C@H](O)[C@H](O)CO [D-Psicose]	698.5	–	–	–	–	–	AUC of growth curve, R. gilardii (R. gilardii): 86.7; AUC of growth curve, P. aeruginosa (P. aeruginosa): 771.3; AUC of growth curve, R. mucilaginosa (R. mucilaginosa): 436.4; AUC of growth curve, R. dentocariosa (R. dentocariosa): 428.2
O=C[C@H](O)[C@H](O)[C@H](O)CO [D-Ribose]	769.0	627.5	718.5	1450.3	431.1	371.4	–
O=C[C@H](O)[C@@H](O)[C@H](O)CO [D-Xylose]	92.4	581.3	310.4	1218.3	257.9	157.4	–
NC(=O)[C@@H](O)[C@@H](O)[C@H](O)[C@@H](O)C=O [Glucuronamide]	62.8	97.6	53.3	820.8	124.2	84.9	–
OCC(O)CO [Glycerol]	802.4	–	59.0	78.3	998.9	786.8	growth of P. aeruginosa on the carbon source (in words) (P. aeruginosa): did not support growth; growth of R. mucilaginosa on the carbon source (in words) (R. mucilaginosa): allowed growth; growth of R. dentocariosa on the carbon source (in words) (R. dentocariosa): allowed growth
NCC(=O)N[C@@H](CCC(=O)O)C(=O)O [Glycyl-L-Glutamic Acid] (H-Gly-Glu-OH)	871.5	–	–	–	–	–	AUC of growth curve, R. gilardii (R. gilardii): 61.5; AUC of growth curve, P. aeruginosa (P. aeruginosa): 285.6; AUC of growth curve, R. mucilaginosa (R. mucilaginosa): 140.3

Compound	AUC of growth curve, S. aureus (S. aureus)	AUC of growth curve, G. haemolysans (G. haemolysans; [1])	AUC of growth curve, R. gilardii (R. gilardii; [1])	AUC of growth curve, P. aeruginosa (P. aeruginosa; [1])	AUC of growth curve, R. dentocariosa (R. dentocariosa; [1])	AUC of growth curve, R. mucilaginosa (R. mucilaginosa; [1])	further results
O=CC(=O)O [Glyoxylic Acid]	–	–	85.2	–	53.5	142.0	–
C[C@H](N)C(=O)NCC(=O)O [L-Alanyl-Glycine] (H-Ala-Gly-OH)	809.1	–	–	–	–	–	AUC of growth curve, R. gilardii (R. gilardii): 76.2; AUC of growth curve, P. aeruginosa (P. aeruginosa): 180.2; AUC of growth curve, G. haemolysans (G. haemolysans): 114.6
O=C[C@H](O)[C@@H](O)[C@@H](O)CO [L-Arabinose]	356.7	120.4	804.7	1269.0	314.8	195.3	–
C[C@H](O)[C@@H](O)[C@@H](O)[C@H](O)C=O [L-Fucose]	277.6	95.6	86.6	701.4	478.0	155.6	–
C[C@H](O)C(=O)O [L-Lactic Acid]	773.2	–	70.3	349.6	632.8	292.5	–
O=C(O)C[C@H](O)C(=O)O [L-Malic Acid]	648.8	73.9	202.5	808.2	–	–	–
N[C@@H](Cc1ccccc1)C(=O)O [L-Phenylalanine]	167.3	64.4	–	–	–	–	–
COC(=O)C(C)=O [Methyl Pyruvate]	611.5	870.9	–	818.7	74.1	–	–
CC(=O)N[C@H]1C(O)O[C@H](CO)[C@@H](O)[C@@H]1O (stereo partly drawn) [N-Acetyl-D-Glucosamine]	643.5	711.9	–	–	–	–	growth of P. aeruginosa on the carbon source (in words) (P. aeruginosa): did not support growth; growth of G. haemolysans on the carbon source (in words) (G. haemolysans): supported growth
CC(=O)N[C@H]1[C@@H](O)[C@H](O)[C@@H](CO)O[C@H]1O [N-Acetyl-β-D-Mannosamine]	738.3	375.8	–	–	–	–	growth of P. aeruginosa on the carbon source (in words) (P. aeruginosa): did not support growth; growth of G. haemolysans on the carbon source (in words) (G. haemolysans): supported growth
O=C(O)[C@]1(O)C[C@@H](O)[C@@H](O)[C@H](O)C1 [Quinic Acid]	255.3	–	92.0	1197.1	–	68.3	–
C/C=C/C=C/C(=O)O [Sorbic Acid]	495.2	90.3	56.2	–	82.4	–	–
O=C(CO)[C@@H](O[C@H]1O[C@H](CO)[C@@H](O)[C@H](O)[C@H]1O)[C@H](O)[C@H](O)CO [Turanose]	1146.9	–	–	–	296.1	91.9	growth of P. aeruginosa on the carbon source (in words) (P. aeruginosa): did not support growth; growth of R. dentocariosa on the carbon source (in words) (R. dentocariosa): stimulated only the growth
CO[C@@H]1O[C@H](CO)[C@@H](O)[C@H](O)[C@H]1O [β-Methyl-D-Glucoside]	779.9	–	56.3	–	405.7	599.6	growth of P. aeruginosa on the carbon source (in words) (P. aeruginosa): did not support growth; growth of R. mucilaginosa on the carbon source (in words) (R. mucilaginosa): allowed growth; growth of R. dentocariosa on the carbon source (in words) (R. dentocariosa): allowed growth
Dextrin	–	66.1	–	–	135.6	–	growth of P. aeruginosa on the carbon source (in words) (P. aeruginosa): did not support growth; AUC of growth curve, S. aureus (S. aureus; [1]): 908.1; growth of R. dentocariosa on the carbon source (in words) (R. dentocariosa): stimulated only the growth
Maltotriose	943.9	–	54.2	–	1276.1	1074.7	growth of P. aeruginosa on the carbon source (in words) (P. aeruginosa): did not support growth; growth of R. mucilaginosa on the carbon source (in words) (R. mucilaginosa): allowed growth; growth of R. dentocariosa on the carbon source (in words) (R. dentocariosa): allowed growth
Tween 40	154.9	101.2	–	–	–	–	–
